Earlier results, collected in patent publication US20040214804A1, “Combination of an aldosterone receptor antagonist and an anti-obesity agent” (Pharmacia Corporation, priority 2003, published 2004).

What was measured:
[1] = system: dietary-induced obesity in dogs; settings: during development of dietary-induced obesity
[2] = system: severe heart failure patients; settings: left ventricular ejection fraction no more than 35%, on standard therapy (ACE inhibitor, loop diuretic, in some cases digoxin)

## COC(=O)[C@@H]1CC2=CC(=O)CC[C@]2(C)[C@@]23O[C@@H]2C[C@@]2(C)[C@@H](CC[C@@]24CCC(=O)O4)[C@H]13 [Eplerenone, Pregn-4-ene-7,21-dicarboxylic acid, 9,11-epoxy-17-hydroxy-3-oxo-,γ-lactone, methyl ester, (7α,11α,17β)-]
[1]
  glomerular hyperfiltration associated with chronic dietary-induced obesity: markedly attenuated
  hypertension associated with chronic dietary-induced obesity: markedly attenuated
  sodium retention associated with chronic dietary-induced obesity: markedly attenuated

## CC(=O)S[C@@H]1CC2=CC(=O)CCC2(C)C2CC[C@]3(C)[C@@H](CC[C@@]34CCC(=O)O4)C21 (stereo partly drawn) [spironolactone, 17-hydroxy-7α-mercapto-3-oxo-17α-pregn-4-ene-21-carboxylic acid γ-lactone acetate]
[2]
  incidence of hospitalization relative to placebo-treated subjects: statistically significant reduction
  mortality relative to placebo-treated subjects: statistically significant reduction
